We go through 30 compounds from US6737431B2 (Bristol-Myers Squibb Company, priority 2002, dated 2004).

One experiment deals with T1, melatonin ML1a receptor (Homo sapiens, UniProt P48039).
T1 construct: expressed in transfected cells; membrane homogenates
As to the kind of experiment: Melatonergic receptor binding, 2-[125I]-iodomelatonin, ML1a. Conditions: NIH-3T3 membranes, 0.1 nM 2-[125I]-iodomelatonin, 37° C. 1 hour. How it is done:
(§1) Melatonergic Receptor Binding Activity
(§2) (a) TME=50 mM Tris buffer containing 12.5 mM MgCl2, and 2 mM EDTA, pH 7.4 at 37° C., with concentrated HCl.
(§3) (b) Wash buffer: 20 mM Tris base containing 2 mM MgCl2, pH 7.4 at room temperature.
(§4) (c) 10^−4 M melatonin (10^−5 M final concentration).
(d) 2-[^125I]-iodomelatonin ML1a, 0.1 nM final concentration.
(§5) 2. Membrane Homogenates: The melatonin ML1a and ML1b receptors cDNA were individually subcloned into pcDNA3 and introduced into NIH-3T3 cells using Lipofectamine. Transformed NIH-3T3 cells resistant to geneticin (G-418) were isolated, and single colonies expressing high levels of 2[^125I]-iodomelatonin binding were isolated. Cells are maintained in DMEM supplemented with 10% calf serum and G-418 (0.5 g/liter). Cells are grown to confluency in T-175 flasks, scraped using Hank's balanced salt solution, and frozen at −80° C. For preparing membrane homogenates, pellets are thawed on ice, and re-suspended in TME buffer in the presence of 10 μg/ml aprotinin and leupeptin, and 100 μM phenylmethylsulfonylfluoride. The cells were then homogenized using a dounce homogenizer, and centrifuged. The resulting pellet was re-suspended with dounce homogenizer in TME (supplemented with the above protease inhibitors) and frozen. On the day of assay, a small aliquot was thawed on ice and re-suspended in the ice cold TME (1:50-1:100 v/v) and held on ice until assayed.
(§6) 3. Incubation: 37° C. for 1 hour. Reaction is terminated by filtration. Filters were washed 3 times.
(§7) 4. References: Reppert, S. M. et al., Neuron, 13, p. 1177-1185 (1994); and Reppert, S. M. et al., Proc. Natl. Acad. Sci. USA, 92, p. 8734-8738 (1995).
(§8) The compounds of the present invention have affinity for receptors of the endogenous pineal hormone, melatonin, as determined in receptor binding assays described above in Tables I to III for the ML1a and ML1b (human) receptors. Melatonin is involved in the regulation of a variety of biological rhythms and exerts its biological effects via interaction with specific receptors. There is evidence that administration of melatonin agonists are of clinical utility in the treatment of various conditions regulated by melatonin activity. Such conditions include depression, jet-lag, work-shift syndrome, sleep disorders, glaucoma, some disorders associated with reproduction, cancer benign prostatic hyperplasia, immune disorders, and neuroendocrine disorders.

Another experiment concerns the target T2, melatonin ML1b receptor (Homo sapiens, UniProt P49286).
T2 construct: expressed in transfected cells; membrane homogenates
T2 sequence (P49286 1-362): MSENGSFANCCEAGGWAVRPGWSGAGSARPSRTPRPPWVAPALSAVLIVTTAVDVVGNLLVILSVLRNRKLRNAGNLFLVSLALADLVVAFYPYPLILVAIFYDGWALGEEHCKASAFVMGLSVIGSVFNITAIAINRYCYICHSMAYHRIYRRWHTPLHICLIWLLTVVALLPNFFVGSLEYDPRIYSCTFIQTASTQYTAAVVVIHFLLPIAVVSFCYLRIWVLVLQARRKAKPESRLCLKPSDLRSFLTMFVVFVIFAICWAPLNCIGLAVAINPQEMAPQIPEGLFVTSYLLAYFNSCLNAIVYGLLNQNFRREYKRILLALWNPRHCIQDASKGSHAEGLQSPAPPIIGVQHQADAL
As to the kind of experiment: Melatonergic receptor binding, 2-[125I]-iodomelatonin, ML1b. Conditions: NIH-3T3 membranes, 0.2 nM 2-[125I]-iodomelatonin, 37° C. 1 hour. As for the experimental part:
as §1, §2, §3, §4
(e) 2-[^125I]-iodomelatonin ML1b, 0.2 nM final concentration.
as §5, §6, §7, §8

T1 sequence (P48039 whole entry): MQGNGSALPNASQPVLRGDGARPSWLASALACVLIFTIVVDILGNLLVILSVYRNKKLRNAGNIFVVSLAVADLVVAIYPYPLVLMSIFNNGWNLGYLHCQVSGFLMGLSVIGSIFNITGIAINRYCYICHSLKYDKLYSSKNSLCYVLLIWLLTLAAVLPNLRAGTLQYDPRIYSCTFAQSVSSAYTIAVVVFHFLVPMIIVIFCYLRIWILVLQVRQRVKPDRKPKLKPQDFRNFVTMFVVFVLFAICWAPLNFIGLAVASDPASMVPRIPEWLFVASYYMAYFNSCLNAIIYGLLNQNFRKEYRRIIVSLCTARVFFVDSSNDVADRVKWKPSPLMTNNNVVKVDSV

The term IC50 denotes the midpoint of a concentration-inhibition curve. Low readings indicate higher potency, high ones lower potency. “N-({(1R,2R)-2-[2-(Methylethyl)benzoxazol-7-yl]cyclopropyl}methyl)-3-methylbutanamide [Example 89]”: the IC50 at melatonin ML1a receptor (Table III) and on melatonin ML1b receptor (Table III) was below 10 nM throughout.
Regarding `CC(=O)NC[C@@H]1C[C@H]1c1cccc2nc(C(C)C)oc12` [Example 83, N-({(1R,2R)-2-[2-(Methylethyl)benzoxazol-7-yl]cyclopropyl}methyl)acetamide], the results for the half-inhibitory concentration (IC50) at melatonin ML1a receptor (Table III) and at melatonin ML1b receptor (Table III) were 10 to 250 nM and below 10 nM, respectively.
In the case of `CCC(=O)NCCCc1cccc2nc(C)oc12` [Example 2, N-[3-(2-Methyl-7-benzoxazolyl)propyl]propanamide], the IC50 on melatonin ML1a receptor (Table I) and at melatonin ML1b receptor (Table I) was below 10 nM each time.
Regarding `CC(=O)NCCCc1cccc2nc(C(C)C)oc12` [Example 34, N-{3-[2-(Methylethyl)benzoxazol-7-yl]propyl}acetamide], the IC50 on melatonin ML1a receptor (Table I) and on melatonin ML1b receptor (Table I) was 10 to 250 nM each time.
On to `CCc1nc2cccc([C@@H]3C[C@H]3CNC(C)=O)c2o1` [Example 76, N-{[(1R,2R)-2-(2-Ethylbenzoxazol-7-yl)cyclopropyl]methyl}acetamide], for which the IC50 at melatonin ML1a receptor (Table III) and on melatonin ML1b receptor (Table III) was below 10 nM throughout.
As to `C=Cc1cc(CCCNC(=O)C2CC2)c2oc(CC)nc2c1` [Example 72, Cyclopropyl-N-[3-(2-ethyl-5-vinylbenzoxazol-7-yl)propyl]carboxamide], the IC50 at melatonin ML1a receptor (Table II) and on melatonin ML1b receptor (Table II) was above 250 nM throughout.
Take `CCNC(=O)NCCCc1cccc2nc(CC)oc12` [Example 12, (Ethylamino)-N-[3-(2-ethylbenzoxazol-7-yl)propyl]carboxamide]: the IC50 on melatonin ML1a receptor (Table I) and at melatonin ML1b receptor (Table I) was 10 to 250 nM each time.
Turning to `CCc1nc2ccc(-c3ccc(OC)cc3)c(CCCNC(=O)c3ccccc3)c2o1` [Example 53, N-{3-[2-Ethyl-6-(4-methoxyphenyl)benzoxazol-7-yl]propyl}benzamide], the IC50 on melatonin ML1a receptor (Table II) and on melatonin ML1b receptor (Table II) was above 250 nM throughout.
Regarding `C=Cc1cc(CCCNC(=O)c2ccccc2)c2oc(CC)nc2c1` [Example 71, N-[3-(2-Ethyl-5-vinylbenzoxazol-7-yl)propyl]benzamide], the concentration for half-maximal inhibition (IC50) at melatonin ML1a receptor (Table II) and at melatonin ML1b receptor (Table II) was above 250 nM in each case.
Take `CCCC(=O)NCCCc1cccc2nc(-c3ccccc3)oc12` [Example 21, N-[3-(2-Phenylbenzoxazol-7-yl)propyl]butanamide]: the half-inhibitory concentration (IC50) on melatonin ML1a receptor (Table I) and on melatonin ML1b receptor (Table I) was 10 to 250 nM throughout.
Consider `CCCC(=O)NCCCc1cccc2nc(C)oc12` [Example 3, N-[3-(2-Methyl-7-benzoxazolyl)propyl]butanamide], for which the concentration for half-maximal inhibition (IC50) on melatonin ML1a receptor (Table I) and on melatonin ML1b receptor (Table I) was below 10 nM each time.
Turning to `CCC(=O)NC[C@@H]1C[C@H]1c1cccc2nc(C(C)C)oc12` [Example 85, N-({(1R,2R)-2-[2-(Methylethyl)benzoxazol-7-yl]cyclopropyl}methyl)propanamide], the IC50 at melatonin ML1a receptor (Table III) and at melatonin ML1b receptor (Table III) was below 10 nM each time.
With “N-({(1R,2R)-2-[2-(5-Phenylbutyl)benzoxazol-7-yl]cyclopropyl}methyl)cyclopropylcarboxamide [Example 98]”, the IC50 at melatonin ML1a receptor (Table III) and on melatonin ML1b receptor (Table III) was below 10 nM throughout.
Take `CCC(=O)NCCCc1cccc2nc(C(C)C)oc12` [Example 35, N-{3-[2-(Methylethyl)benzoxazol-7-yl]propyl}propanamide]: the IC50 at melatonin ML1a receptor (Table I) and at melatonin ML1b receptor (Table I) was 10 to 250 nM each time.
Turning to `CCNC(=O)NCCCc1cccc2nc(-c3ccccc3)oc12` [Example 24, (Ethylamino)-N-[3-(2-phenylbenzoxazol-7-yl)propyl]carboxamide], the IC50 on melatonin ML1a receptor (Table I) was above 250 nM; on melatonin ML1b receptor (Table I) it was 10 to 250 nM.
Take `CCCc1nc2cccc([C@@H]3C[C@H]3CNC(=O)NCC)c2o1` [Example 92, N-{[(1R,2R)-2-(2-Propylbenzoxazol-7-yl)cyclopropyl]methyl}(ethylamino)carboxamide]: the IC50 on melatonin ML1a receptor (Table III) and on melatonin ML1b receptor (Table III) was below 10 nM in each case.
As for `CCc1nc2cc(-c3ccc(F)cc3)cc(CCCNC(=O)C3CC3)c2o1` [Example 60, Cyclopropyl-N-{3-[2-ethyl-5-(4-fluorophenyl)benzoxazol-7-yl]propyl}carboxamide], the IC50 at melatonin ML1a receptor (Table II) and at melatonin ML1b receptor (Table II) was 10 to 250 nM in each case.
For the compound `Cc1nc2cccc(CCCNC(=O)C(C)C)c2o1` [Example 5, N-[3-(2-Methyl-7-benzoxazolyl)propyl]-2-methylpropanamide], the IC50 at melatonin ML1a receptor (Table I) and on melatonin ML1b receptor (Table I) was below 10 nM throughout.
Regarding “N-({(1R,2R)-2-[2-(5-Phenylbutyl)benzoxazol-7-yl]cyclopropyl}methyl)-2-methylpropanamide [Example 97]”, the concentration for half-maximal inhibition (IC50) at melatonin ML1a receptor (Table III) and on melatonin ML1b receptor (Table III) was below 10 nM throughout.
As for `CCc1nc2ccc(-c3ccccc3)c(CCCNC(C)=O)c2o1` [Example 55, N-[3-(2-Ethyl-6-phenylbenzoxazol-7-yl)propyl]acetamide], the 50% inhibitory concentration (IC50) at melatonin ML1a receptor (Table II) and at melatonin ML1b receptor (Table II) was below 10 nM each time.
On to `CCc1nc2cc(-c3ccccc3)cc(CCCNC(=O)C3CC3)c2o1` [Example 67, Cyclopropyl-N-[3-(2-ethyl-5-phenylbenzoxazol-7-yl)propyl]carboxamide], for which the figures for the IC50 on melatonin ML1a receptor (Table II) and at melatonin ML1b receptor (Table II) were 10 to 250 nM and above 250 nM, respectively.
As to `CCCc1nc2cccc(CCCNC(=O)NCC)c2o1` [Example 18, (Ethylamino)-N-[3-(2-propylbenzoxazol-7-yl)propyl]carboxamide], the values for the concentration for half-maximal inhibition (IC50) at melatonin ML1a receptor (Table I) and at melatonin ML1b receptor (Table I) were above 250 nM and 10 to 250 nM, respectively.
Consider `CCc1nc2ccc(-c3ccc(C(F)(F)F)cc3)c(CCCNC(=O)C3CC3)c2o1` [Example 51, Cyclopropyl-N-(3-{2-ethyl-6-[4-(trifluoromethyl)phenyl]benzoxazol-7-yl}propyl)carboxamide], for which the IC50 is above 250 nM at melatonin ML1a receptor (Table II) and 10 to 250 nM at melatonin ML1b receptor (Table II).
With `CCc1nc2ccc(-c3ccc(OC)cc3)c(CCCNC(C)=O)c2o1` [Example 52, N-{3-[2-Ethyl-6-(4-methoxyphenyl)benzoxazol-7-yl]propyl}acetamide], the IC50 was 10 to 250 nM on melatonin ML1a receptor (Table II) and below 10 nM on melatonin ML1b receptor (Table II).
For the compound `CCCc1nc2cccc(CCCNC(C)=O)c2o1` [Example 13, N-[3-(2-Propylbenzoxazol-7-yl)propyl]acetamide], the IC50 was above 250 nM on melatonin ML1a receptor (Table I) and 10 to 250 nM at melatonin ML1b receptor (Table I).
As to `CCCC(=O)NCCCc1cccc2nc(C(C)C)oc12` [Example 36, N-{3-[2-(Methylethyl)benzoxazol-7-yl]propyl}butanamide], the IC50 on melatonin ML1a receptor (Table I) and at melatonin ML1b receptor (Table I) was 10 to 250 nM throughout.
`CCC(=O)NCCCc1cccc2nc(CCCCc3ccccc3)oc12` [Example 26, N-{3-[2-(4-Phenylbutyl)benzoxazol-7-yl]propyl}propanamide]: the IC50 is below 10 nM at melatonin ML1a receptor (Table I) and 10 to 250 nM at melatonin ML1b receptor (Table I).
In the same order, the values of `CCc1nc2cccc(CCCNC(=O)C(C)C)c2o1` [Example 10, N-[3-(2-Ethylbenzoxazol-7-yl)propyl]-2-methylpropanamide] are 10 to 250 nM and 10 to 250 nM.
Turning to `CCc1nc2cccc([C@@H]3C[C@H]3CNC(=O)C3CC3)c2o1` [Example 80, N-{[(1R,2R)-2-(2-Ethylbenzoxazol-7-yl)cyclopropyl]methyl}cyclopropylcarboxamide], the IC50 at melatonin ML1a receptor (Table III) and on melatonin ML1b receptor (Table III) was below 10 nM each time.
Consider `CCc1nc2cc(-c3ccc(OC)cc3)cc(CCCNC(=O)C3CC3)c2o1` [Example 64, Cyclopropyl-N-{3-[2-ethyl-5-(4-methoxyphenyl)benzoxazol-7-yl]propyl}carboxamide], for which the IC50 on melatonin ML1a receptor (Table II) and at melatonin ML1b receptor (Table II) was above 250 nM each time.
